Test results as given in US20040029777A1, “Pharmaceutical preparation for taste masking” (TAISHO PHARMACEUTICAL CO., LTD., priority 2002, published 2004).

Tests used:
[1] = In vitro dissolution test, USP apparatus 2 (paddle); assay type: physicochemical; details: distilled water (FIG. 16)
Method: Complexes that corresponded to 150 mg of ibuprofen were subjected to dissolution in a USP (United States Pharmacopoeia) dissolution apparatus 2 (Paddle-type) with several kinds of solutions (900 ml). This dissolution test was conducted at 37° C., and a paddle rotation speed of 50 rpm was maintained. A UV detector was used to measure the absorbance of dissolution liquids at regular intervals of up to 120 minutes.
The complexes containing 150 mg of ibuprofen were subjected to dissolution testing using a USP dissolution apparatus 2 (Paddle-type) with several kinds of solutions (900 ml). This dissolution test was conducted at 37° C., at a paddle rotation speed of 50 rpm. A UV detector was used to measure the absorbance of dissolution liquids at regular intervals up to 120 minutes.

[2] = Thermographic analysis (TGA), change in weight at set temperature; assay type: physicochemical
Method: Samples weighing approximately 10 mg were placed in a platinum pan and the change in weight at a set temperature (100° C., 150° C.) was measured using Perkin-Elmer Thermal Analysis Equipment.

In the case of CC(C)Cc1ccc(C(C)C(=O)O)cc1 (stereo not drawn) [ibuprofen, Ibuprofen], the dissolution profile saturation [1] is reported as ~40%, the “TGA change in weight (sublimation)” value ([2]; 100° C.) is reported as “showed sublimation” and the “TGA change in weight (sublimation)” value ([2]; 150° C.) is reported as “showed sublimation”.
